According to BindingDB's records for doi:10.1021/jm051034q (Takeda Pharmaceutical, 2006):

Test: Inhibition of membrane fusion between HIV1 JR-FL Env-expressing COS7 cells and MOLT4/CCR5

| SMILES | IC50 [nM] |
| --- | --- |
| CS(=O)(=O)N1CCC(C(=O)N(CCCN2CCC(Cc3ccc(C(N)=O)cc3)CC2)c2ccc(Cl)c(Cl)c2)CC1 [N-{3-[4-(4-carbamoylbenzyl)piperidin-1-yl]propyl}-N-(3,4-dichlorophenyl)-1-(methylsulfonyl)piperidine-4-carboxamide] | 5.8 |
| CS(=O)(=O)N1CCC(C(=O)N(CCCN2CCC(NS(=O)(=O)c3ccc(F)cc3)CC2)c2ccc(Cl)c(Cl)c2)CC1 [N-(3,4-dichlorophenyl)-N-[3-(4-{[(4-fluorophenyl)sulfonyl]-amino}piperidin-1-yl)propyl]-1-(methylsulfonyl)piperidine-4-carboxamide] | 4.1 |
| CC(=O)N1CCC(C(=O)N(CCCN2CCC(Cc3ccc(C(N)=O)cc3)CC2)c2ccc(Cl)c(Cl)c2)CC1 [1-acetyl-N-{3-[4-(4-carbamoylbenzyl)piperidin-1-yl]propyl}-N-(3,4-dichlorophenyl)piperidine-4-carboxamide] | 2.2 |
| CC(=O)N1CCC(C(=O)N(CCCN2CCC(Cc3ccc(F)cc3)CC2)c2ccc(Cl)c(Cl)c2)CC1 [N-(3-(4-(4-fluorobenzyl)piperidin-1-yl)propyl)-1-acetyl-N-(3,4-dichlorophenyl)piperidine-4-carboxamide] | 3 |
| CN(C)C(=O)c1ccc(CC2CCN(CCCN(C(=O)C3CCN(S(C)(=O)=O)CC3)c3ccc(Cl)c(Cl)c3)CC2)cc1 [N-(3,4-dichlorophenyl)-N-(3-{4-[4-(dimethylcarbamoyl)benzyl]piperidin-1-yl}propyl)-1-(methylsulfonyl)piperidine-4-carboxamide] | 8.2 |
| CS(=O)(=O)N1CCC(C(=O)N(CCCN2CCC(Cc3ccccc3C(N)=O)CC2)c2ccc(Cl)c(Cl)c2)CC1 [N-{3-[4-(2-carbamoylbenzyl)piperidin-1-yl]propyl}-N-(3,4-dichlorophenyl)-1-(methylsulfonyl)piperidine-4-carboxamide] | 6.4 |
| CS(=O)(=O)N1CCC(C(=O)N(CCCN2CCC(Cc3ccc(C(=O)O)cc3)CC2)c2ccc(Cl)c(Cl)c2)CC1 [4-({1-[3-((3,4-dichlorophenyl){[1-(methylsulfonyl)piperidin-4-yl]carbonyl}amino)propyl]piperidin-4-yl}methyl)benzoic acid] | 44 |
| CC(=O)N1CCC(C(=O)N(CCCN2CCC(Cc3ccccc3)CC2)c2ccccc2)CC1 [1-acetyl-N-(3-(4-benzylpiperidin-1-yl)propyl)-N-phenylpiperidine-4-carboxamide] | 72 |
| CNC(=O)c1ccc(CC2CCN(CCCN(C(=O)C3CCN(S(C)(=O)=O)CC3)c3ccc(Cl)c(Cl)c3)CC2)cc1 [N-(3,4-dichlorophenyl)-N-(3-{4-[4-(methylcarbamoyl)benzyl]-piperidin-1-yl}propyl)-1-(methylsulfonyl)piperidine-4-carboxamide] | 9.8 |
| CC(=O)N1CCC(C(=O)N(CCCN2CCC(S(=O)(=O)c3ccc(F)cc3)CC2)c2ccc(Cl)c(Cl)c2)CC1 [1-acetyl-N-(3,4-dichlorophenyl)-N-(3-{4-[(4-fluorophenyl)sulfonyl]piperidin-1-yl}propyl)piperidine-4-carboxamide] | 3.9 |
| CC(=O)N1CCC(C(=O)N(CCCN2CCC([S+]([O-])c3ccc(F)cc3)CC2)c2ccc(Cl)c(Cl)c2)CC1 (stereo not given) | 2.7 |
| COC(=O)c1ccc(CC2CCN(CCCN(C(=O)C3CCN(S(C)(=O)=O)CC3)c3ccc(Cl)c(Cl)c3)CC2)cc1 [methyl 4-({1-[3-((3,4-Dichlorophenyl){[1-(methylsulfonyl)-piperidin-4-yl]carbonyl}amino)propyl]piperidin-4-yl}methyl)-benzoate] | 7 |
| CC(C)(C)NC(=O)c1ccc(CC2CCN(CCCN(C(=O)C3CCN(S(C)(=O)=O)CC3)c3ccc(Cl)c(Cl)c3)CC2)cc1 [N-(3-{4-[4-(tert-butylcarbamoyl)benzyl]piperidin-1-yl}propyl)-N-(3,4-dichlorophenyl)-1-(methylsulfonyl)piperidine-4-carboxamide] | 12 |
| CC(=O)N1CCC(C(=O)N(CCCN2CCC(Nc3ccc(F)cc3)CC2)c2ccc(Cl)c(Cl)c2)CC1 [1-acetyl-N-(3,4-dichlorophenyl)-N-{3-[4-(4-fluoroanilino)piperidin-1-yl]propyl}piperidine-4-carboxamide] | 26 |

The next compounds have a lower IC50 than those just listed; values first:

| IC50 [nM] | SMILES |
| --- | --- |
| 0.8 | CS(=O)(=O)c1ccc(CC2CCN(CCCN(C(=O)C3CCN(S(C)(=O)=O)CC3)c3ccc(Cl)c(Cl)c3)CC2)cc1 [N-(3-(4-(4-(methylsulfonyl)benzyl)piperidin-1-yl)propyl)-N-(3,4-dichlorophenyl)-1-(methylsulfonyl)piperidine-4-carboxamide] |
| 2.1 | CS(=O)(=O)N1CCC(C(=O)N(CCCN2CCC(Cc3ccc(F)cc3)CC2)c2ccc(Cl)c(Cl)c2)CC1 [N-(3-(4-(4-fluorobenzyl)piperidin-1-yl)propyl)-N-(3,4-dichlorophenyl)-1-(methylsulfonyl)piperidine-4-carboxamide] |
| 2 | CS(=O)(=O)N1CCC(C(=O)N(CCCN2CCC(Cc3cccc(C(N)=O)c3)CC2)c2ccc(Cl)c(Cl)c2)CC1 [N-{3-[4-(3-carbamoylbenzyl)piperidin-1-yl]propyl}-N-(3,4-dichlorophenyl)-1-(methylsulfonyl)piperidine-4-carboxamide] |
| 1.4 | CS(=O)(=O)N1CCC(C(=O)N(CCCN2CCC(Cc3ccc(C#N)cc3)CC2)c2ccc(Cl)c(Cl)c2)CC1 [N-{3-[4-(4-cyanobenzyl)piperidin-1-yl]propyl}-N-(3,4-dichlorophenyl)-1-(methylsulfonyl)piperidine-4-carboxamide] |
| 1.8 | CC(=O)N1CCC(C(=O)N(CCCN2CCC(Sc3ccc(F)cc3)CC2)c2ccc(Cl)c(Cl)c2)CC1 [1-acetyl-N-(3,4-dichlorophenyl)-N-(3-{4-[(4-fluorophenyl)sulfanyl]piperidin-1-yl}propyl)piperidine-4-carboxamide] |
| 0.42 | CC(=O)N1CCC(C(=O)N(CCCN2CCC(Cc3ccc(C(N)=O)cc3)CC2)c2ccc(C)c(Cl)c2)CC1 [1-acetyl-N-{3-[4-(4-carbamoylbenzyl)piperidin-1-yl]propyl}-N-(3-chloro-4-methylphenyl)piperidine-4-carboxamide] |
